This note sets out measurements from ChEMBL document CHEMBL1148545, “New metabolically stable fatty acid amide ligands of cannabinoid receptors: Synthesis and receptor affinity studies” (Bioorg Med Chem Lett, 2006).

Test [1] has as its target T1, Cannabinoid receptor 1 (Homo sapiens, UniProt P21554). The experiment in a line: Displacement of [3H]CP-55940 from human recombinant CB1 receptor. In general terms: In a radioligand displacement assay an active substance lowers the binding of a labelled ligand.
Test [2] concerns the target Cannabinoid receptor 2 (Homo sapiens, UniProt P34972). In words: Displacement of [3H]CP-55940 from human recombinant CB2 receptor.
For test [3], the target named is T1, Cannabinoid receptor 1. The experiment in a line: Displacement of [3H]CP-55940 from human recombinant CB1 receptor in presence of hydrolase inhibitor PMSF.
Test [4] deals with T2, Fatty-acid amide hydrolase 1 (Rattus norvegicus, UniProt P97612).
T2 sequence (P97612 whole entry): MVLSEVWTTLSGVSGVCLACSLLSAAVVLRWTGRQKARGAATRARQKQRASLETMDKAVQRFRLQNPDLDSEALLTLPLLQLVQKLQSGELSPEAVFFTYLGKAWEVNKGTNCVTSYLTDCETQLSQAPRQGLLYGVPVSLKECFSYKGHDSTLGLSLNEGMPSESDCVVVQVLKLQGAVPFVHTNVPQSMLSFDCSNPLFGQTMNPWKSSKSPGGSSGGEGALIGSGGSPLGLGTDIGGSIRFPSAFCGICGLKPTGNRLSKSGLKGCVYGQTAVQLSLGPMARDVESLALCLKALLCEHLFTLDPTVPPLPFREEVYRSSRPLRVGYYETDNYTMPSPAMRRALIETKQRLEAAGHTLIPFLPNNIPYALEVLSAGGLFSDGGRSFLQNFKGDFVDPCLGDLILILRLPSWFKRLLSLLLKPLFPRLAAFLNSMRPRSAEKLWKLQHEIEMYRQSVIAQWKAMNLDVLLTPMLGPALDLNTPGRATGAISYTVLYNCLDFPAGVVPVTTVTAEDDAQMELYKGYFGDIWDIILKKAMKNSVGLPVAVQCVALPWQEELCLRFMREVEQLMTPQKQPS
In words: Inhibitory activity against rat brain FAAH by [14C]anandamide hydrolysis.

T1 sequence (P21554 whole entry): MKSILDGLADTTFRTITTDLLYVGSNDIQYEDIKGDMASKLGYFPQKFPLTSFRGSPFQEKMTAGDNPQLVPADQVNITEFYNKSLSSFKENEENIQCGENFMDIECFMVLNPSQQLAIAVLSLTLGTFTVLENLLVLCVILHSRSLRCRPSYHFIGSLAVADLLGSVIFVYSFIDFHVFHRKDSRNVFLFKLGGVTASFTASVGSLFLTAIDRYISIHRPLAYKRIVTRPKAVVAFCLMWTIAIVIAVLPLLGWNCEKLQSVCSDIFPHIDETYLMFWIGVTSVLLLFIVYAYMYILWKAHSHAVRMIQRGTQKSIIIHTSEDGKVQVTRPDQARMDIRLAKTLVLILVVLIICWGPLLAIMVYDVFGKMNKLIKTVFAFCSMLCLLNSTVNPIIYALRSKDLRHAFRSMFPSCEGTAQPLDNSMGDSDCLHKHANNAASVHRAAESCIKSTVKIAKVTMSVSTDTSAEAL
Chain of Cannabinoid receptor 2 (P34972 whole entry): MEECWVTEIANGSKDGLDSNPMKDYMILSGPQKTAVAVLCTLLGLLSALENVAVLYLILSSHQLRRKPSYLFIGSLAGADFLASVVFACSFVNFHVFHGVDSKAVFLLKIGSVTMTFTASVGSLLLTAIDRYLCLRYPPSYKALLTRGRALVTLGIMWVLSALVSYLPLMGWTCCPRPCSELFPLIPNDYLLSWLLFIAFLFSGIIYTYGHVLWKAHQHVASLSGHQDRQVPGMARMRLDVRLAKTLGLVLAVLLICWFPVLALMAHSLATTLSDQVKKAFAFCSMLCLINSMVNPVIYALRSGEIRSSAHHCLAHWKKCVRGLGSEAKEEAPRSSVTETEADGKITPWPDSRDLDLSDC

With `CCCCCCCC/C=C\CCCCCCCCCCCC(=O)NCCc1ccc(OC)cc1OC`, the Ki (usually the equilibrium dissociation constant of an inhibitor or competing ligand from its target) in test [1] is 3.7 µM; in test [2], more than 10 µM.
With `CCCCC/C=C\C/C=C\C/C=C\C/C=C\CCCC(=O)NCCc1ccc(OC)cc1OC`, the values for the Ki in test [1] and in test [2] were 0.5 µM and 4 µM, respectively.
In the same order, the values of `C=CCCCCCCCCC(=O)NCCc1ccc(OC)cc1OC` are more than 10 µM and more than 10 µM.
On to `CCCCCCCC/C=C\CCCCCCCCCCCC(=O)NCCc1ccc(OC)cc1`, for which the Ki in test [1] and in test [2] was more than 10 µM throughout.
As for `CCCCC/C=C\C/C=C\C/C=C\C/C=C\CCCC(=O)NCc1cc(OC)ccc1OC`, the figures for the Ki in test [1] and in test [2] were 0.5 µM and 4.1 µM, respectively.
Turning to `CCCCC/C=C\C/C=C\C/C=C\C/C=C\CCCC(=O)N1CCN(c2ccc(F)cc2)CC1`, the Ki in test [3] stood at 0.3 µM; in test [1], 0.3 µM; in test [2], 5.1 µM. The IC50 (usually the concentration at which inhibition is half-maximal) in test [4] was more than 25 µM.
On to `CCCCCCCC/C=C/C(=O)NCCc1ccc(OC)cc1`, for which the Ki in test [2] amounted to 5.1 µM.
Regarding `CCCCC/C=C\C/C=C\C/C=C\C/C=C\CCCC(=O)NCc1ccc(OC)cc1OC`, the Ki in test [3] came out at 0.2 µM; in test [1], 0.2 µM; in test [2], 4 µM. The IC50 in test [4] is more than 25 µM.
In the case of `CCCCCCCC/C=C/C(=O)NCc1ccc(OC)cc1`, the Ki in test [1] and in test [2] was more than 10 µM throughout.
Turning to `C=CCCCCCCCCC(=O)NCc1ccc(OC)cc1`, the Ki in test [1] and in test [2] was more than 10 µM each time.
On to `CCCCCCCC/C=C\CCCCCCCC(=O)NCCc1ccc(OC)cc1`, for which the figures for the Ki in test [3], in test [1] and in test [2] were 0.3 µM, 0.4 µM and more than 10 µM, respectively. This compound had an IC50 in test [4] of more than 25 µM.
Regarding `C=CCCCCCCCCC(=O)NCCc1cc(OC)cc(OC)c1`, the Ki in test [1] and in test [2] was more than 10 µM throughout.
On to `CCCCCCCC/C=C\CCCCCCCC(=O)NCCc1ccc(OC)cc1OC`, for which the Ki in test [3] is 0.6 µM; in test [1] it was 0.8 µM; in test [2], more than 10 µM. In test [4], this compound returned an IC50 of more than 25 µM.
For `CCCCCCCC/C=C\CCCCCCCCCCCC(=O)Nc1ccc(N2CCOCC2)cc1`, the figures for the Ki in test [1] and in test [2] were 6.4 µM and more than 10 µM, respectively.
For `CCCCCCCC/C=C/C(=O)NCCc1cc(OC)cc(OC)c1`, in that order: 2.8 µM and 5.2 µM.
As to `C=CCCCCCCCCC(=O)Nc1ccc(N2CCOCC2)cc1`, the Ki in test [1] and in test [2] was more than 10 µM each time.
Take `CCCCC/C=C\C/C=C\C/C=C\C/C=C\CCCC(=O)N1CCN(c2ccc(C)c(C)c2)CC1`: the Ki in test [1] stood at 0.4 µM; in test [2], 4.2 µM.
For `CCCCC/C=C\C/C=C\C/C=C\C/C=C\CCCC(=O)NCCc1cc(OC)cc(OC)c1`, in that order: more than 10 µM and more than 10 µM.
With `C=CCCCCCCCCC(=O)Nc1ccc(OC)cc1`, the Ki in test [1] and in test [2] was more than 10 µM in each case.
For the compound `CCCCC/C=C\C/C=C\C/C=C\C/C=C\CCCC(=O)Nc1ccc(O)cc1`, the Ki in test [1] stood at 1.76 µM.
Regarding `CCCCCCCC/C=C/C(=O)Nc1ccc(N2CCOCC2)cc1`, the Ki in test [1] and in test [2] was more than 10 µM throughout.
Consider `CCCCC/C=C\C/C=C\C/C=C\C/C=C\CCCC(=O)NCCc1ccc(OC)cc1`, for which the figures for the Ki in test [1] and in test [2] were 2.4 µM and more than 10 µM, respectively.
Consider `CCCCCCCC/C=C\CCCCCCCC(=O)Nc1ccc(N2CCOCC2)cc1`, for which the Ki in test [1] and in test [2] was more than 10 µM in each case.
Regarding `CCCCC/C=C\C/C=C\C/C=C\C/C=C\CCCC(=O)Nc1ccc(OC)cc1`, the values for the Ki in test [1] and in test [2] were 0.5 µM and 4 µM, respectively.
For the compound `CCCCCCCC/C=C\CCCCCCCCCCCC(=O)Nc1ccc(OC)cc1`, the Ki in test [1] and in test [2] was more than 10 µM in each case.
Consider `CCCCCCCC/C=C\CCCCCCCC(=O)NCCc1cc(OC)cc(OC)c1`, for which the inhibitory constant (Ki) in test [3] was 1 µM; in test [1] it was 1.3 µM; in test [2] it was more than 10 µM. The compound further came in with an IC50 in test [4] of more than 25 µM.
Take `CCCCCCCC/C=C/C(=O)NCCc1ccc(OC)cc1OC`: the Ki in test [1] and in test [2] was more than 10 µM each time.
With `CCCCCCCC/C=C/C(=O)Nc1ccc(OC)cc1`, the Ki in test [2] worked out at 2.5 µM.
On to `CCCCCCCC/C=C\CCCCCCCCCCCC(=O)NCc1ccc(OC)cc1`, for which the Ki in test [1] and in test [2] was more than 10 µM each time.
Take `C=CCCCCCCCCC(=O)NCCc1ccc(OC)cc1`: the Ki in test [1] and in test [2] was more than 10 µM throughout.
For the compound `CCCCC/C=C\C/C=C\C/C=C\C/C=C\CCCC(=O)N1CCN(c2ccc(Cl)cc2)CC1`, the Ki in test [1] is 0.6 µM; in test [2], more than 10 µM.
Take `CCCCCCCC/C=C\CCCCCCCC(=O)Nc1ccc(OC)cc1`: the Ki was 1.5 µM in test [3], 1.6 µM in test [1] and more than 10 µM in test [2]. For the same compound, the IC50 in test [4] is more than 25 µM.
In the case of `CCCCCCCC/C=C\CCCCCCCCCCCC(=O)NCCc1cc(OC)cc(OC)c1`, the Ki in test [1] was 5.4 µM; in test [2], more than 10 µM.
Take `CCCCC/C=C\C/C=C\C/C=C\C/C=C\CCCC(=O)Nc1ccc(N2CCOCC2)cc1`: the Ki came out at 0.15 µM in test [3], 0.15 µM in test [1] and 4.3 µM in test [2]. Moreover, the IC50 in test [4] is more than 25 µM.
Regarding `CCCCC/C=C\C/C=C\C/C=C\C/C=C\CCCC(=O)NCc1ccc(OC)cc1`, the Ki was 0.6 µM in test [1] and 4.5 µM in test [2].
Consider `CCCCCCCC/C=C\CCCCCCCC(=O)NCc1ccc(OC)cc1`, for which the values for the Ki in test [3], in test [1] and in test [2] were 0.6 µM, 0.5 µM and more than 10 µM, respectively. This compound also returned an IC50 in test [4] of more than 25 µM.
